Earlier results as cited in PMC12163019 (Frontiers in Pharmacology, 2025).

Set-up: method as in Danto et al., 2019a
Conditions: modified-release formulation; ref Danto et al., 2019a

In the case of `CC[C@@H]1[C@H](F)C(=O)N[C@@H]1COc1nccc2cc(C(N)=O)c(OC)cc12` [zimlovisertib], the half-life is given as 38.8 ± 21.1 h.
